# In PubChem BioAssay (NCI):
#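 How tested: cells in 96-well plates exposed to compound for 48 hours at five concentrations. GI50 is the concentration that inhibits growth by half. Definition used: TGI = concentration required for complete inhibition of growth.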
# How the values were obtained:
# Assay in all cases: NCI tumour cell line growth inhibition, 48 h
# OVCAR-4 ovarian = system: OVCAR-4 ovarian
# MCF7 breast = system: MCF7 breast
# MDA-MB-435 = system: MDA-MB-435
# K-562 leukemia = system: K-562 leukemia
# SK-MEL-5 melanoma = system: SK-MEL-5 melanoma
# EKVX NSCLC = system: EKVX NSCLC
# SNB-75 CNS = system: SNB-75 CNS
# ACHN renal = system: ACHN renal
# IGROV1 ovarian = system: IGROV1 ovarian
# MALME-3M melanoma = system: MALME-3M melanoma
SMILES,GI50 (OVCAR-4 ovarian),TGI (OVCAR-4 ovarian),GI50 (MCF7 breast),TGI (MCF7 breast),GI50 (MDA-MB-435),TGI (MDA-MB-435),GI50 (K-562 leukemia),TGI (K-562 leukemia),GI50 (SK-MEL-5 melanoma),TGI (SK-MEL-5 melanoma),GI50 (EKVX NSCLC),TGI (EKVX NSCLC),GI50 (SNB-75 CNS),TGI (SNB-75 CNS),GI50 (ACHN renal),TGI (ACHN renal),GI50 (IGROV1 ovarian),TGI (IGROV1 ovarian),TGI (MALME-3M melanoma),GI50 (MALME-3M melanoma)
Cc1cccc(Cc2cnc(NC(=O)CCc3ccc(C)o3)s2)c1,1.23 µM,> 100 µM,0.0495 µM,> 100 µM,0.0302 µM,0.12 µM,0.0541 µM,> 100 µM,0.107 µM,6.08 µM,0.585 µM,> 100 µM,0.165 µM,5.67 µM,0.526 µM,> 100 µM,0.555 µM,> 100 µM,> 100 µM,–
COc1cc(-c2csc(NC(=O)Nc3cc(Cl)cc(Cl)c3)n2)cc(OC)c1OC,1.78 µM,3.36 µM,2.01 µM,5.42 µM,1.9 µM,3.96 µM,4.4 µM,> 100 µM,3.15 µM,11.2 µM,1.87 µM,4.22 µM,1.49 µM,2.88 µM,1.71 µM,3.15 µM,2.03 µM,4.04 µM,3.25 µM,1.75 µM
CCN(CC)C(=S)[S][Bi]([S]C(=S)N(CC)CC)[S]C(=S)N(CC)CC,0.165 µM,0.31 µM,0.119 µM,0.349 µM,0.984 µM,2.2 µM,0.123 µM,> 31.6 µM,0.634 µM,1.7 µM,0.282 µM,0.732 µM,0.213 µM,0.527 µM,0.226 µM,0.488 µM,0.577 µM,1.8 µM,0.317 µM,0.168 µM
CCCCCCCCCCCCCCCCCC(=O)Nc1ccn(C2OC(CO)C(O)C2O)c(=O)n1 (stereo unspecified),–,> 100 µM,–,> 100 µM,–,> 100 µM,–,> 100 µM,–,> 97.5 µM,–,> 100 µM,–,> 94.6 µM,–,> 100 µM,–,> 100 µM,> 59.1 µM,–
CC(=C/c1ccccc1)/C=C1/NC(=S)N(/C=C2\C(=O)Oc3ccccc3C2=O)C1=O,–,> 100 µM,–,> 100 µM,–,> 100 µM,–,> 100 µM,–,> 86.9 µM,–,> 100 µM,–,> 100 µM,–,> 100 µM,86.7 µM,> 100 µM,> 100 µM,> 100 µM
CC(O)c1cc(C(=O)N[C@@H](C)Cn2ccc(-c3ccc(C#N)c(Cl)c3)n2)n[nH]1 (stereo partly specified),16.3 µM,> 100 µM,30.7 µM,> 100 µM,32.4 µM,> 100 µM,0.73 µM,> 100 µM,15.2 µM,48.3 µM,36.8 µM,> 100 µM,52.4 µM,> 100 µM,82.5 µM,> 100 µM,78.8 µM,> 100 µM,> 100 µM,42.5 µM
CC(=O)c1cc(O)c2ccccc2c1O,14.2 µM,41.6 µM,14.8 µM,36.9 µM,14.5 µM,30.7 µM,23.1 µM,67.6 µM,16.3 µM,30.2 µM,22.1 µM,81.2 µM,15.7 µM,32.8 µM,16.9 µM,32.5 µM,13 µM,29.3 µM,34.2 µM,18.2 µM
Cc1cc(I)cc(CN(C)CCCN2CCN(C)CC2)c1O,> 73.1 µM,> 100 µM,26 µM,82.7 µM,14.4 µM,31.4 µM,14.6 µM,40.1 µM,16.1 µM,29.9 µM,79.3 µM,> 100 µM,31.5 µM,> 100 µM,81.6 µM,> 100 µM,40.5 µM,> 100 µM,36.2 µM,19.9 µM
O=C(O)C(Oc1nc(=S)[nH]c(=S)[nH]1)(c1ccc(Cl)cc1)c1ccc(Cl)cc1,–,> 100 µM,–,> 100 µM,–,> 100 µM,–,> 100 µM,–,> 100 µM,–,> 100 µM,–,> 100 µM,–,> 100 µM,–,> 100 µM,> 100 µM,–
CN(C)CCCn1c(-c2nonc2N)nc2cnccc21,> 25 µM,> 25 µM,> 25 µM,> 25 µM,> 25 µM,> 25 µM,> 25 µM,> 25 µM,> 25 µM,> 25 µM,> 25 µM,> 25 µM,8.06 µM,> 25 µM,> 25 µM,> 25 µM,> 25 µM,> 25 µM,> 25 µM,> 25 µM
O=C1OCC2=C1C(c1ccccc1)c1cc3c(cc1N2CCO)OCCO3 (stereo unspecified),0.587 µM,> 50 µM,0.175 µM,48.6 µM,0.113 µM,0.32 µM,0.191 µM,> 50 µM,0.181 µM,7.18 µM,0.962 µM,> 50 µM,0.121 µM,0.427 µM,0.493 µM,> 50 µM,0.161 µM,1.41 µM,> 50 µM,> 50 µM
CC(C)=CCCC(C)C1=C(O)C(=O)C(C)=CC1=O (stereo unspecified),–,17.4 µM,–,31.1 µM,–,43.5 µM,–,4.37 µM,–,24.6 µM,–,> 49.8 µM,–,37.6 µM,–,3.98 µM,–,32.8 µM,23 µM,–
Cc1ccc(Sc2cc3c(oc2=O)-c2ccccc2OC3O)cc1 (stereo unspecified),33.1 µM,> 100 µM,35.9 µM,> 100 µM,27.2 µM,54.6 µM,27.7 µM,> 100 µM,17.1 µM,32.9 µM,21.9 µM,43.9 µM,30.5 µM,81.2 µM,24.8 µM,57.3 µM,22.4 µM,49.2 µM,49.2 µM,25 µM
